Assay: gradient 5% acetonitrile 3 min, to 50% in 2 min, to 85% in 15 min, held 3 min, 100 µL/min
Conditions: column: Zorbax Extend-C18 2.1 x 50 mm; eluents: water / acetonitrile, 0.1% formic acid
In short: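 Retention time was recorded from adduct peaks, which were picked computationally and each inspected manually. Pure standards ran in mixtures of ~100 molecules on HPLC coupled to a quadrupole time-of-flight mass spectrometer, in positive and negative ionization mode, through a Zorbax Extend-C18 column (2.1 × 50 mm, 1.8 μm) at 100 μL/min. Eluents were water and acetonitrile, each with 0.1% formic acid.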

| RP-LC retention time | Compound |
| --- | --- |
| 856 s | CCOc1ccccc1NC(=O)NCCCn1c(C(F)(F)F)nc2cccnc21 |
| 714 s | Cc1ccc(NC(=O)Cn2c(C(C)C)nc3c(c2=O)CCN(Cc2ccccc2)C3)cc1 |
| 744 s | O=C(Cn1cnc(-c2nc(-c3ccccc3)cs2)c1)Nc1ccc(F)cc1F |
| 627 s | O=C(Nc1ccc(Br)cc1F)N1CCN(Cc2ccc3nccnc3c2)CC1 |
| 985 s | CCOc1ccc(/C=C/C(=O)Nc2nc(-c3ccc4c(c3)N(C)C(=O)CO4)cs2)cc1OC |
| 986 s | O=C(Nc1ccc(Cl)cc1)c1cnc(-c2ccc(F)cc2)nc1-c1ccncc1 |
| 1280 s | CCCCC(=O)Nc1ccc(-c2nc(-c3cc(C)ccc3C)co2)cc1 |
| 927 s | Cc1oc(C(=O)O)cc1COc1ccc2c(oc(=O)c3ccccc32)c1C |
| 868 s | CCOc1ccccc1-c1noc(CN2N=NC3C(=O)N(c4ccc(OC)c(OC)c4)C(=O)C32)n1 (stereo not drawn) |
| 809 s | COc1cc(NC(=O)c2cn(-c3cc(N(C)C)ncn3)cn2)cc(OC)c1 |
| 932 s | O=C(Cn1c(=O)c2cc(-c3cccs3)nn2c2ncccc21)Nc1ccc(Cl)cc1 |
| 997 s | CCOc1ccc(-c2c(C#N)c(N)nc(SCC(=O)OCc3ccccc3)c2C#N)cc1 |
| 1000 s | CCOc1ccc(NC(=O)C2CCN(S(=O)(=O)c3cc(-c4noc(C)n4)sc3C)CC2)cc1 |
| 825 s | O=C(Cn1cnc(-c2nc(-c3ccccc3)cs2)c1)Nc1cc(F)ccc1F |
| 770 s | O=C(Cn1nc2c(Oc3ccc(F)cc3)nccn2c1=O)NCc1ccccc1 |
| 724 s | CC1Cc2ccccc2N1C(=O)c1coc(NC(=O)c2ccco2)n1 (stereo not drawn) |
| 1160 s | COc1ccccc1NC(=O)C1CCCN(c2nc3ccccc3nc2OC)C1 (stereo not drawn) |
| 942 s | Cc1ccccc1-n1ccn(Cc2nc(-c3ccc(F)c(Cl)c3)no2)c(=O)c1=O |
| 824 s | CCn1ccc2c(cc(C(=O)Nc3ccc(C)c(C)c3)n2C)c1=O |
| 624 s | c1ccc(-n2ncc3cccnc32)cc1 |

| RP-LC retention time | Compound |
| --- | --- |
| 997 s | O=C(Nc1ccc2ncsc2c1)c1sc2ccccc2c1Cl |
| 713 s | CC1=C(c2ccc(F)cc2)S(=O)(=O)N=C1N1CCCN(C(=O)c2cccnc2)CC1 |
| 663 s | COc1ccc(C[C@H](C)NC[C@@H](O)c2ccc(O)c(NC=O)c2)cc1 |
| 889 s | CSc1ccc(-c2nc3ncccn3c2Nc2ccc(C)c(C)c2)cc1 |
| 743 s | CC1CC(=O)Nc2ccccc2N1C(=O)c1ccc(Cl)cc1 (stereo not drawn) |
| 781 s | CCCn1cc(CCNC(=O)Nc2ccc(C)cc2C)c2cccnc21 |
| 1150 s | O=c1c2cc(-c3ccc(F)cc3)nn2ccn1Cc1nc(-c2cccc(Br)c2)no1 |
| 1220 s | Cc1ccc(-n2nc(C)c3sc(N4CCCC(C(=O)Nc5ccccc5C)C4)nc32)cc1 (stereo not drawn) |
| 630 s | COc1ccc(C(O)CN2CCN(c3ccccc3)CC2)cc1 (stereo not drawn) |
| 1260 s | CCCCOc1ccc(Nc2cc(Cl)ccc2C(=O)O)cn1 |
| 1130 s | COc1ccc(Cl)cc1S(=O)(=O)N1CCC(c2noc(-c3ccccc3)n2)CC1 |
| 1080 s | COc1cccc(-c2ccc(NC(=O)C3=C(C(=O)O)CCC3)c(F)c2)c1 |
| 879 s | Cc1cc(C)cc(NC(=O)Cn2c(=O)n(-c3ccc(F)cc3)c(=O)c3c2cc(C)n3C)c1 |
| 871 s | COc1cc(OC)c(NC(=O)Cn2c(=O)n(-c3cccc(C)c3)c(=O)c3c2cc(C)n3C)cc1Cl |
| 843 s | COCCCNc1nc(-c2ccc(C(C)(C)C)cc2)nc2ccccc12 |
| 902 s | O=C(c1cc(F)ccc1F)N1CCC2(CC1)N=C(c1ccc(Cl)cc1)NO2 |
| 1010 s | COc1cc(NC(=O)c2csc(-c3cn(C)c4ncccc34)n2)cc(OC)c1 |
| 1210 s | COc1cccc(-n2c(=O)c(C(=O)Nc3ccc(F)cc3)c(O)c3cccnc32)c1 |
| 770 s | CSc1cccc(NC(=O)N2CCC(N3CCN(Cc4ccccc4)C(=O)C3=O)CC2)c1 |

More lines, now with the values behind:

| Compound | RP-LC retention time |
| --- | --- |
| COc1ccc2c(c1)CC(NC(=O)N1CCN(Cc3ccc4c(c3)OCO4)CC1)CO2 (stereo not drawn) | 652 s |
| CN(C)S(=O)(=O)c1cccc(-c2nnc(-c3ccccc3Br)o2)c1 | 947 s |
| O=C(CSc1ncccn1)N1CCc2ccccc21 | 720 s |
| CCc1nc(-c2csc(S(=O)(=O)N3CCC(C(=O)Nc4ccc(F)c(Cl)c4)CC3)c2)no1 | 1150 s |
| COc1ccc(-c2cc3n(n2)CCCN(C(=O)C2CCCO2)C3)cc1 (stereo not drawn) | 700 s |
| CCc1csc(-c2cn(CC(=O)NCc3cccc(C(F)(F)F)c3)cn2)n1 | 768 s |
| CCN1C(=O)CN(C(=O)c2ccoc2)CC12CCOCC2 | 609 s |
| O=C(Cc1csc(SCc2ccc(Br)cc2)n1)NCc1cccs1 | 978 s |
| O=c1n(Cc2ccccc2)nc2ccc(S(=O)(=O)N3CCCCC3)cn12 | 910 s |
| CCOC(=O)c1csc(NC(=O)C2CCCN(c3ccc(-c4ccccc4)nn3)C2)n1 (stereo not drawn) | 659 s |
| O=C(O)CSc1nnc(-c2ccc(Cl)cc2Cl)n1Cc1ccccc1 | 771 s |
| CCOC(=O)Cc1csc(NC(=O)Cc2csc(Nc3cc(C)ccn3)n2)n1 | 624 s |
| Cn1c(N2CCN(C(=O)c3ccc(F)c(F)c3)CC2)cc(=O)n(C)c1=O | 656 s |
| CCC1=C(C(=O)Nc2ccccc2)C2CCCC3(C2)NCCCN13 (stereo not drawn) | 611 s |
| Cc1noc([C@@H]2CC(F)(F)CN2S(=O)(=O)c2ccccc2C)n1 | 909 s |
| O=C(Nc1cnn(-c2ncc(N3CCCC3)cn2)c1)c1ccccc1C(F)(F)F | 817 s |
| CCc1ccc(NC(=O)C2CCCN2S(=O)(=O)c2cc3c(cc2C)NC(=O)C(C)O3)cc1 (stereo not drawn) | 842 s |
| CN1CCN(C(=O)c2nnc(-c3ccc(S(=O)(=O)N4CCCCC4)cc3)o2)CC1 | 654 s |
| CCC(C)(C)NC(=O)Cn1ncc2c(N3CCN(c4ccccn4)CC3)ncnc21 | 587 s |
| O=C(c1cccs1)N1CCC2(CC1)NC(=O)N(Cc1cccc(Cl)c1)C2=O | 810 s |
| Cc1ccnc(NC(=O)C2CCN(S(=O)(=O)c3c(C)nn(CC(=O)N4CCCC4)c3C)CC2)c1 | 619 s |
| Cn1cc2c(N3CCCC3)nc(C(=O)NCCN3CCc4ccccc4C3)nc2n1 | 523 s |
| O=C(CC1CCN(C(=O)Nc2ccccc2Cl)CC1)N1CCCCC1 | 806 s |
| O=C(NCc1ccc(N2CCOCC2)cc1)c1cn2c(n1)COCC2 | 597 s |
| Cc1noc(C)c1CN1CCN(C(=O)c2cc(-c3ccco3)on2)CC1 | 572 s |

| Compound | RP-LC retention time |
| --- | --- |
| O=C(NC1CC1)c1cc2cc(Cl)ccc2[nH]1 | 809 s |
| CCOCC(=O)N1CCCN(C2=NS(=O)(=O)C(c3ccc(Cl)cc3)=C2C)CC1 | 761 s |
| Cn1c(NCCN(CCO)CCCc2ccc([N+](=O)[O-])cc2)cc(=O)n(C)c1=O | 610 s |
| CCCCc1ccc(NC(=O)N2CCCC2c2nncn2C2CCCC2)cc1 (stereo not drawn) | 864 s |
| O=C(CCC1CCCC1)NC1(c2nc(-c3cccnc3)no2)CCCCC1 | 1020 s |
| Cc1ccc(CNC(=O)C2CCCN(c3cnn(C)c(=O)c3)C2)cc1 (stereo not drawn) | 715 s |
| CCN1c2ccccc2C(=O)NC12CCN(C(=O)NCc1ccc(C)cc1)CC2 | 796 s |
| O=c1n(Cc2ccccc2)nc2n1CCN(S(=O)(=O)c1ccccc1)CC2 | 793 s |
| Cc1c(F)cccc1NC(=O)N1CC(F)(F)C[C@H]1CN1CCCC1 | 676 s |
| O=C1c2ccccc2C(=O)c2c1cccc2N1CCCC(CO)C1 (stereo not drawn) | 635 s |
| O=C(CCn1cnc2cc(-c3noc(/C=C/c4cccs4)n3)ccc21)N1CCCC1 | 774 s |
| Cc1ccc(Cn2c(N3CCCC(C(=O)NC4CCCC4)C3)nc3ccsc3c2=O)cc1 (stereo not drawn) | 967 s |
| Cc1sc2nc(SCC(=O)Nc3sc4c(c3C#N)CCCC4)n(C)c(=O)c2c1C | 1080 s |
| Cc1noc(-c2ccnc(-n3cnc(C(=O)NC(C)C)c3)c2)n1 | 712 s |
| O=C(NCC1CCCO1)C1CCN(C(=O)C2Sc3ccccc3NC2=O)CC1 (stereo not drawn) | 642 s |
| COc1ccc(-c2nnc(-c3ccccc3)o2)cc1S(=O)(=O)NC(C)(C)CO | 759 s |
| Cc1cc(Cl)ccc1NC(=O)N1CCN(C2=CC3=NCC(C)N3C=N2)CC1 (stereo not drawn) | 814 s |
| O=C(NC1CCN(c2cc(-c3cccs3)[nH]n2)C1)c1ccccc1Br (stereo not drawn) | 705 s |
| O=C(C1=CN(c2cc(F)cc(F)c2)c2ccccc2S1(=O)=O)N1CCCC1 | 786 s |
| Cc1cc(NC(=O)C2CCN(S(=O)(=O)c3cn(C(C)C)cn3)CC2)ccc1Br | 876 s |
| COCCNC(=O)C1COC2(CCCCC2)N1C(=O)c1cccc(F)c1 (stereo not drawn) | 719 s |
| CN1C2CCC1CC(NC(=O)c1nn(C)c3ccccc13)C2 (stereo not drawn) | 655 s |
| CCOC(=O)C1CCC(CNC(=O)N2CCN(Cc3nc4ccc(Cl)cc4o3)CC2)CC1 (stereo not drawn) | 697 s |
| CN(C)CCCCN1CCc2c(n(C)c3ccccc23)C1=O | 650 s |

— the METLIN SMRT retention time set (Domingo-Almenara et al. 2019)
